Test results reported in patent US20230364012A1, “STABLE OPHTHALMIC COMPOSITION OF LOTEPREDNOL” (MANKIND PHARMA LTD., priority 2022, published 2023).

Experiment: Particle size of the compositions, tested initially, after 15 days and one month (stability studies)
Type: physicochemical
Conditions: Initial
Protocol: The particle size of the compositions of the invention were tested initially, after 15 days and one month. The compositions of the invention were then observed and tested for particle aggregation, settling, and flocculation on long term storage. The observations at one month, three months, 6 months, 9 months are as follows: […]

CCOC(=O)O[C@]1(C(=O)OCCl)CC[C@H]2[C@@H]3CCC4=CC(=O)C=C[C@]4(C)[C@H]3[C@@H](O)C[C@@]21C [API, Loteprednol etabonate]
Particle size D10: 1 µm
Particle size D50: 3.3 µm
Particle size D90: 9.1 µm
